{"source": "patent US10836793B2", "about": "“Compounds for the treatment of neurodegenerative diseases” (University of South Florida, priority 2018, dated 2020)", "key": {"[1]": {"target": "human recombinant alpha-synuclein (Homo sapiens, UniProt P37840)", "test": "Western blot of alpha-synuclein aggregation", "format": "biochemical", "details": "aggregated for 7 days in the presence of 25 μg/mL HW-C-9; FIG. 7", "experimental": "The effect of HW-C-9 on synuclein was analyzed with a Western blot. Results are shown in FIG. 7, wherein lane 1 is human recombinant alpha-synuclein (stained with goat anti-human alpha-synuclein antibody) without aggregation as a control, lane 2 is human recombinant alpha-synuclein (stained with goat anti-human alpha-synuclein antibody) aggregated for 7 days, and lane 3 is human recombinant alpha-synuclein (stained with goat anti-human alpha-synuclein antibody) aggregated for 7 days in the presence of 25 μg/mL of HW-C-9."}, "[2]": {"test_system": "Aβ42 amyloid plaques in mouse brain tissue", "test": "Mouse brain tissue incubated with compound, immunohistochemical staining with Aβ42 antibodies", "details": "mouse brain tissue incubated overnight with 25 μM HW-C-9; FIG. 6B", "experimental": "(§1) Shown in FIG. 6A is a Western blot of Aβ42, wherein lane 1 is 20 μM of Aβ, lane 2 is 40 μM of HW-155-1 as a control and 20 μM of Aβ, and lane 3 is 40 μM of HW-C-9 and 20 μM of Aβ. Shown in FIG. 6B on the left is mouse brain tissue incubated overnight with and without 25 μM of HW-C-9, and then immunohistochemically stained with Aβ42 antibodies. On the right of FIG. 6B is a graphical quantification of the density and strength of the antibody stains."}, "Aβ42 [3]": {"target": "T1, Aβ42 (Homo sapiens, UniProt P05067)", "T1 construct": "and 42 amino acids in length (Aβ42)", "T1 sequence (P05067 672-713 limits assumed)": "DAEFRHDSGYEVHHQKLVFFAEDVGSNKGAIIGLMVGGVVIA", "test": "Thioflavin T (ThT) spectroscopic assay of Aβ42 aggregation", "format": "biochemical", "details": "1, 5 and 10 μM HW-C-9; Aβ42 5 μM; 37° C.; FIG. 4", "experimental": "(§2) The effect of HW-C-9 on Aβ42 was analyzed using the Thioflavin T (ThT) spectroscopic assay. Thioflavin T (ThT) is a benzothiazole salt obtained by the methylation of dehydrothiotoluidine with methanol in the presence of hydrochloric acid. ThT was used as a dye to visualize and quantify the presence or fibrilization of misfolded protein aggregates. Briefly, HW-C-9 in Tris Buffered Saline (TBS, pH 7.5) containing 10 μM ThT was added into a black 96 well plate. Aβ42 protein monomer was freshly thawed and used to make a stock 5 μM solution in TBS. An equal volume of Aβ42 solution was added to each well to a final concentration of 2.5 μM Aβ42 and incubated at 37° C. Time-dependent fluorescence change was monitored by a Synergy 2 plate reader at an excitation wavelength of 440 nm and emission at 482 nm. The fluorescence intensity of ThT was measured over time, as ThT changed fluorescence intensity upon binding to the Aβ42 protein aggregates. 100% aggregation was defined as the fluorescence change of 2.5 μM Aβ42 in TBS buffer containing 5 μM ThT after 24 hours.\nIn FIG. 4, C1 is 1 μM of HW-C-9, C3 is 5 μM of HW-C-9, and C4 is 10 μM of HW-C-9. Aβ42 was present in all samples at a concentration of 5 μM. The top curve (red line, “Agg”) is the Aβ42-only control."}, "Aβ42 [4]": {"target": "T1, Aβ42", "test": "Western blot of Aβ42 aggregation", "format": "biochemical", "details": "40 μM HW-C-9 and 20 μM Aβ; FIG. 6A", "experimental": "as §1"}, "[5]": {"test_system": "recombinant human tau protein", "test": "ThT assay of tau protein aggregation", "format": "biochemical", "details": "100, 50, 20, 10 and 1 μM HW-C-9; Tau 10 μM; FIG. 5", "experimental": "as §2\nThe effect of HW-C-9 on recombinant human tau protein was analyzed using the ThT assay, as detailed in Example 2, but with tau protein in place of Aβ42. In FIG. 5, C1 is 100 μM of HW-C-9, C2 is 50 μM of HW-C-9, C3 is 20 μM of HW-C-9, C4 is 10 μM of HW-C-9, and C5 is 1 μM of HW-C-9. […]"}}, "data": [{"smiles": "C=CCOC(=O)N(CC(=O)N[C@@H](Cc1ccccc1)CN(CC(=O)N[C@@H](CCCCN)CN(CC(=O)N[C@@H](CC(C)C)CN(CC(=O)NCCCCCCCC(=O)NCCCC[C@H](NC(=O)CCCCCCCNC(=O)CN(C[C@H](CC(C)C)NC(=O)CN(C[C@H](CCCCN)NC(=O)CN(C[C@H](Cc1ccccc1)NC(=O)CN(C[C@@H](N)CCCCN)C(=O)OCC=C)C(=O)CCc1ccccc1)C(=O)CC(C)C)C(=O)CC(C)C)C(N)=O)C(=O)CC(C)C)C(=O)CC(C)C)C(=O)CCc1ccccc1)C[C@@H](N)CCCCN", "note": "[HW-C-9]", "values": [{"measurement": "inhibition of alpha-synuclein aggregation (Western blot)", "setting": "[1]", "result": "can inhibit aggregation of alpha-synuclein"}, {"measurement": "removal of amyloid plaques (density and strength of Aβ42 antibody stains)", "setting": "[2]", "result": "remove amyloid plaques"}, {"measurement": "inhibition of Aβ42 aggregation (ThT fluorescence)", "setting": "Aβ42 [3]", "result": "can inhibit Aβ42 aggregation at all concentrations tested"}, {"measurement": "inhibition of Aβ42 aggregation (Western blot)", "setting": "Aβ42 [4]", "result": "can inhibit aggregation of Aβ42"}, {"measurement": "inhibition of tau protein aggregation (ThT fluorescence)", "setting": "[5]", "result": "can inhibit aggregation of tau protein at all concentrations tested"}]}]}
